Measured values from US10774124B2, “Protease resistant mutants of stromal cell derived factor-1 in the repair of tissue damage” (THE BRIGHAM AND WOMEN'S HOSPITAL, INC., priority 2006, dated 2020).
Where two headings read alike, the source gives them in different places. No end group written: not given here.

Legend:
Jurkat T cells = test: Jurkat T cell migration assay; assay type: cell-based; conditions: for activity on T-cell migration: compared to native SDF-1; for activity in promoting T cell migration: concentration of 100 nM, versus unmutated SDF-1
Method: Cells from a 4-L growth were lysed in 300 ml lysis buffer (6M Guanidine, 20 mM phosphate (pH 7.8), 500 mM NaCl) and homogenized. Debris is collected by centrifugation at 3000 g. The first purification step consisted of capture of the poly-histidine tag present in the SUMO-SDF-1α fusion protein with Nickel-NTA. Nickel-NTA resin was washed with wash buffer (8M Urea, 500 mM NaCl, 20 mM phosphate (pH 6.2)) and the bound protein was eluted at pH 4. Further purification and oxidative refolding were performed on a Cation Exchange HPLC column. The sample was adjusted to binding buffer (8M Urea, 30 mM 2-mercaptoethanol, 1 mM EDTA, 50 mM Tris pH8) and loaded on the HPLC column. Refolding of Sumo-SDF-1 was performed on the column with a 2 h run of refolding buffer (50 mM Tris pH8, 75 mM NaCl, 0.1 mM reduced Glutathione and 0.1 mM oxidized Glutathione). Sumo-SDF-1 was eluted with a step gradient (0.5 to 1M NaCl) and concentrated. The SUMO-SDF-1 fusion protein was cleaved by Sumo Protease 1 (IU/50 μg protein) in 50 mM Tris pH 8.0, 500 mM NaCl. The sample was adjusted to 0.1% trifluoroacetic acid (TFA) and loaded on a C18 Reversed Phase HPLC column for the final purification step. The column was subjected to a linear gradient from 30 to 40% acetonitrile in 0.1% TFA. The fractions containing SDF-1 were lyophilized and resuspended. Activity of purified SDF-1 was tested by migration of Jurkat T-lymphocyte cell line.
The mutated forms of SDF-1 were examined in an assay of migration of Jurkat T cells at a concentration of 100 nM.
Migration experiments were performed with the Jurkat T-lymphocyte cell line. […] Therefore, if 500 times higher concentrations were used compared to full-length protein, the same migratory response of T-lymphocytes should be observed. […] This is a similar shift to that seen between native SDF-1 and SDF-1(S4V).

[1] = target: CXC chemokine receptor 4 (CXCR4) (Homo sapiens, UniProt P61073); conditions: cited from earlier work
CXC chemokine receptor 4 (CXCR4), sequence (P61073 whole entry): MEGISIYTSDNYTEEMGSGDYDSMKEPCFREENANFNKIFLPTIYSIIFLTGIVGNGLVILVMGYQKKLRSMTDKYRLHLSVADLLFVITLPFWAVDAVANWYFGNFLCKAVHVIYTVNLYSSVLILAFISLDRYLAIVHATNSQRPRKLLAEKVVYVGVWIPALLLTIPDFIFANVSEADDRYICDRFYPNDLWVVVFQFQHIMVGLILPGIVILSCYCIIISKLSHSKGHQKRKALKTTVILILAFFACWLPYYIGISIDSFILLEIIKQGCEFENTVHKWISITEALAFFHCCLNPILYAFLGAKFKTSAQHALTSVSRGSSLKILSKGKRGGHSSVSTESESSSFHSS

[2] = tested on: T lymphocytes and CEM cells; conditions: cited from earlier work
[3] = tested on: T lymphocytes and CEM cells; conditions: cited from earlier work; for induce chemotaxis: T lymphocytes and CEM cells; for fold less potent than SDF-1: chemoattractant activity, relative to native SDF-1; for EC50: read-out: half-maximal chemoattractant activity
MMP-2 [4] = target: T1, MMP-2 (Homo sapiens, UniProt P08253); test: MMP-2 cleavage, incubation product examined by SDS-PAGE; assay type: biochemical; conditions: for cleavage by MMP-2 (SDS-PAGE): 2 nmole peptide incubated with MMP-2 for 1 h at RT
T1 sequence (P08253 110-660): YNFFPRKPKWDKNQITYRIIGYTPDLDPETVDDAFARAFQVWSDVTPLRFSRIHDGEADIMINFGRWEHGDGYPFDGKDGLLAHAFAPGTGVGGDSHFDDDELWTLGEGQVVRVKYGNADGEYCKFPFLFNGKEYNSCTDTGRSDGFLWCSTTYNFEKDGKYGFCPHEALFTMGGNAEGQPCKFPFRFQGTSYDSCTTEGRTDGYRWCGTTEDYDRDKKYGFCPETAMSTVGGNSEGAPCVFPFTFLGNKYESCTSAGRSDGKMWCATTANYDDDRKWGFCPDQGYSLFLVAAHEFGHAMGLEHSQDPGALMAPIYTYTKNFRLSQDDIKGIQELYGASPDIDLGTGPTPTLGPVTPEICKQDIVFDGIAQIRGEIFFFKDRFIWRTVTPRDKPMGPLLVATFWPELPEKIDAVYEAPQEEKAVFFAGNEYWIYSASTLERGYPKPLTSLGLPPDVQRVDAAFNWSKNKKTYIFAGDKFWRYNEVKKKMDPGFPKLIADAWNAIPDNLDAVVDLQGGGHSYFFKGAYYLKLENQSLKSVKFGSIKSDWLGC
Method: The susceptibility of the peptides to cleavage by MMP-2 was determined by incubating the mutants with the enzyme for one hour and then examining the incubation product by SDS-PAGE.
Cleavage experiments of the peptides with MMP-2 were performed: 2 nmole of SDF-1 17AA, SDF-1(S4V) 17AA, and SDF-1(L5P) 17AA were incubated with MMP-2 for 1 h at RT. Proteins were run on an SDS-PAGE showing cleavage of SDF-1 17AA, but not of SDF-1(S4V) 17AA or SDF-1(L5P) 17AA. Thus, these truncated proteins may be useful therapeutically, as they are still bioactive and also MMP-2 resistant.

MMP-2 [5] = target: T1, MMP-2; test: Jurkat T-cell migration assay after MMP-2 incubation; assay type: cell-based

Substance	activity on T-cell migration (Jurkat T cells)	activity in promoting T cell migration (Jurkat T cells)	bind to CXCR4 [1]	induce intracellular calcium [2]	induce chemotaxis [3]	also measured
SDF-1(L5P): SDF-1 mutant, leucine at position 5 changed to proline, SEQ ID NO:56	bioactivity comparable to native SDF-1	retained most of the activity of unmutated SDF-1	–	–	–	–
1-9 dimer: dimer of the SDF-1 1-9 peptide (KPVSLSYRC; also: dimer; UniProt P48061 22-30, looked up, fragment)	–	–	bind	induce	induce	fold less potent than SDF-1 [3]: 100 fold; EC50 [3]: 500 nM
SDF-1 17AA: KPVSLSYRCPCRFFESH (SEQ ID 64), first 17 amino acids of native SDF-1 (listed as Homo sapiens)	–	–	–	–	–	cleavage by MMP-2 (SDS-PAGE) (MMP-2 [4]): cleavage; times less potent than native SDF-1 (Jurkat T cells; Jurkat T-lymphocyte migration): 500 times
SCR: GIVGPL (SEQ ID NO:58), linker sequence, a scrambled version of the MMP-2 cleavage site MCS (listed as Homo sapiens)	–	–	–	–	–	MMP-2 cleavage of linker sequence (MMP-2 [4]; rate compared with MCS): undergo MMP-2 cleavage, although at a slower rate than MCS
SDF-1(L5P) 17AA: KPVSPSYRCPCRFFESH (SEQ ID 66) (listed as Homo sapiens)	–	–	–	–	–	cleavage by MMP-2 (SDS-PAGE) (MMP-2 [4]): not; times less potent than SDF-1 17AA without mutation (Jurkat T cells; Jurkat T-lymphocyte migration): three times less potent
SDF-1(S4V): SDF-1 mutant, serine at position 4 changed to valine, SEQ ID NO:54	bioactivity comparable to native SDF-1	retained most of the activity of unmutated SDF-1	–	–	–	chemoattractant activity after MMP-2 incubation (MMP-2 [5]): not; chemoattractant activity after MMP-2 incubation (MMP-2 [5]; listed as S4V variant of SDF-1): resistant to activation by MMP-2
stromal cell derived factor-1 [SDF-1]	–	–	–	–	–	cleavage by MMP-2 (positional shift on SDS-PAGE) (MMP-2 [4]; incubated with the enzyme for one hour): positional shift indicative of cleavage; EC50 [3]: 5 nM; chemoattractant activity after MMP-2 incubation (MMP-2 [5]): reduce the chemoattractant activity
1-8: peptide of N-terminal residues 1-8 of SDF-1 (KPVSLSYR; UniProt P48061 22-29, looked up, fragment)	–	–	bind	induce	induce	–
1-17: peptide of N-terminal residues 1-17 of SDF-1 (KPVSLSYRCPCRFFESH; UniProt P48061 22-38, looked up, fragment)	–	–	bind	induce	induce	fold less potent than SDF-1 [3]: 400 fold
SDF-1(L5E): SDF-1 mutant, leucine at position 5 changed to glutamic acid	minimal activity	greatly reduced	–	–	–	–
SDF-1(L5W): SDF-1 mutant, leucine at position 5 changed to tryptophan	minimal activity	greatly reduced	–	–	–	–
1-9: peptide of N-terminal residues 1-9 of SDF-1 (KPVSLSYRC; UniProt P48061 22-30, looked up, fragment)	–	–	bind	induce	induce	fold less potent than SDF-1 [3]: 3600 fold
SDF-1(S4V) 17AA: KPVVLSYRCPCRFFESH (SEQ ID 65) (listed as Homo sapiens)	–	–	–	–	–	cleavage by MMP-2 (SDS-PAGE) (MMP-2 [4]): not; times less potent than SDF-1 17AA without mutation (Jurkat T cells; Jurkat T-lymphocyte migration): three times less potent
